From PMC11943482, “A Chalcone Synthase-like Bacterial Protein Catalyzes Heterocyclic C-Ring Cleavage of Naringenin to Alter Bioactivity Against Nuclear Receptors in Colonic Epithelial Cells” (Metabolites, 2025)

Molecular target: nuclear receptor 4A1 (NR4A1) (Homo sapiens, UniProt P22736)
Experiment: tryptophan fluorescence quenching with the isolated LBD ([…])
Assay type: binding

nuclear receptor 4A1 (NR4A1), sequence (P22736 360-598 limits assumed): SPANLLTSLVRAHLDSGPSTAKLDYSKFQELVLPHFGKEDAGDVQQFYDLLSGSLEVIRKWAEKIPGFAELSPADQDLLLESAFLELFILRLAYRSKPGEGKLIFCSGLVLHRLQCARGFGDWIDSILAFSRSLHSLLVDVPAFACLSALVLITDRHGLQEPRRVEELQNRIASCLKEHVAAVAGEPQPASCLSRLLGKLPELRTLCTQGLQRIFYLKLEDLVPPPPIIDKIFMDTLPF

`O=C1C[C@@H](c2ccc(O)cc2)Oc2cc(O)cc(O)c21` [naringenin] was tested, and the Kd was 4.5 µM.
